# Read-outs that look alike come from different tables or passages of the source. Marks after values point to notes of the source that are not given here.
# Tests used:
# Heterodera glycines eggs = experiment: Microwell assay: eggs immersed in compounds, hatch and activity of hatched J2; format: in vivo; conditions: for % Active Day 2 / % Active Day 5 / % Active Day 7: J2 hatched from immersed eggs; for inactive J2 that hatched from the eggs: by Day 7; for Hatch Day 2 / Hatch Day 5 / Hatch Day 7: hatched J2 per well, about 35 eggs per well; for pest or weed control at 0.1 %: Heterodera glycines, 168 h, read-out: egg hatch suppression compared with the Tween control
# Method: All chemicals were used without further purification.
# These are reported as 0.1% herein.
# The nematodes were then incubated at 26° C. […] Two trials were conducted for each assay.
# The assumptions of the model were checked.
# [1] = system: M. incognita second-stage juveniles; experiment: Microwell assay: previously hatched J2 immersed in compounds, activity and viability; conditions: for mortality at 0.1 %: read-out: nonviable (killed) J2
# Method: Nematode cultures: As described in Meyer et al. (Meyer, S. L. F., et al., Nematropica, 46: 85-96 (2016)), M. incognita race 1 (originally isolated in Maryland) was maintained in a greenhouse (24° to 29° C.; natural and supplemental lighting combined for a 16-h daylength) on susceptible cayenne pepper (Capsicum annuum) TA-136′ plants. All greenhouse experiments described herein were conducted under the same conditions. Two to three months after pepper plant inoculation, egg masses were picked from roots. Eggs were separated by 5 min immersion in 0.6% sodium hypochlorite, followed by a rinse in sterile distilled water (SDW). To collect second-stage juveniles (J2) for microwell assays, the surface-sterilized eggs were placed in a hatching chamber (Spectra/Mesh Nylon Filter, openings 25-μm-diam.; Spectrum Laboratories Inc., Rancho Dominguez, Calif.) set in an autoclaved dish that was placed on a rotary shaker for 3 days at 35 rpm. For some M. incognita and H. glycines assays, 25 or […] kanamycin monosulfate (Phytotechnology Laboratories, Shawnee Mission, Kans.) was added to the hatching chamber to prevent growth of bacteria. The collected J2 were then rinsed with water to remove the kanamycin monosulfate.
# Compounds for the studies were purchased from three different companies: methyl benzoate, CAS Number 93-58-3, ≥99% purity; Tween 20, CAS Number: 9005-64-5; Tween 80, CAS Number: 9005-65-6; ethyl benzoate, CAS Number: 93-89-0, natural, ≥99% purity, FCC, FG; vinyl benzoate, CAS Number: 769-78-8, ≥99% purity; n-propyl benzoate, CAS Number: 2315-68-6, 99% purity; n-butyl benzoate, CAS Number: 136-60-7, 99% purity; benzyl benzoate, CAS Number: 120-51-4, natural, ≥99% purity, FCC, FG; methyl 2-methylbenzoate, CAS Number: 89-71-4, 99% purity; methyl 2-chlorobenzoate, CAS Number: 610-96-8, ≥98% purity; methyl 2-methoxybenzoate, CAS Number: 606-45-1, 99% purity and methyl 2-nitrobenzoate, CAS Number: 606-27-9, 98% purity were purchased from Sigma-Aldrich (St. Louis, Mo.). Compounds, iso-butyl benzoate, CAS Number 120-50-3, >98% purity; n-pentyl benzoate, CAS Number: 2049-96-9, ≥98% purity; and n-hexyl benzoate, CAS Number: 6789-88-4, ≥98% purity were purchased from Alfa Aesar (Tewksbury, Mass.). The compounds methyl 3-methoxybenzoate (methyl m-anisate), CAS Number: 5368-81-0; 97% and methyl 3-methylbenzoate (methyl m-toluate), CAS Number: 99-36-5, 97% purity were purchased from TCI America (Portland, Oreg.). All chemicals were used without further purification. Deionized water (DI) containing 1% emulsifier (v/v), Tween 20 and Tween 80, at 1:1 ratio was used to make different VOCs (volatile organic compounds) water solutions and also used as blank control.
# For tests with individual compounds, the concentration of each compound was 0.1% before placement into wells; the final concentration in the wells was 0.095% after addition to eggs or J2 suspended in water. These are reported as 0.1% herein. An exception was Trial 2, M. incognita J2 activity and viability (Table 2): the final concentration was 0.1% after placement in wells. Low concentrations were selected for assays of combined compounds to determine if the combinations would increase nematotoxicity.
# Laboratory assays were conducted in 96-well polystyrene plates following general procedures described in Wen et al. (2019). Each well received approximately 35 J2 (for previously hatched J2 assays) or 35 eggs that each contained either a first-stage juvenile (J1) or a J2. The plates were covered with plastic adhesive sealing film (Excel Scientific, Inc., Victorville Calif.) and then with the plate lids. Parafilm (Bemis, Neenah, Wis.) was used to seal the plates. The nematodes were then incubated at 26° C. […] Following the counts on Day 2, the treatments were removed and the J2 rinsed twice with SDW and incubated in the second rinse. […] Two trials were conducted for each assay.
# [2] = system: cucumber (Cucumis sativus) plants; experiment: Greenhouse trial: cucumber plant vigor in treated soil; conditions: for Root weight Trials 1 & 2: 27-28 ml per 300 grams soil; for Shoot fresh weight Trial 1 / Shoot height Trial 1: 27 ml per 300 grams soil; for Shoot fresh weight Trial 2 / Shoot height Trial 2: 28 ml per 300 grams soil
# Method: Greenhouse trials: Selected compounds and combinations were tested for effects on plant growth and on numbers of galls produced by M. incognita infecting cucumber (Cucumis sativus) plants in pots. Cucumber “Sweet Slice” seeds were planted in ProMix in 6-pack cell trays. Treatments were mixed into loamy sand at 27 ml (Trial 1) and 28 ml (Trial 2) per 300 grams soil. Meloidogyne incognita eggs were mixed into soil for a final inoculum of 5,000 per pot. Each pot received 300 grams soil per treatment, with 4 replicates per treatment in each of two trials. Pots were covered with black plastic and periodically watered to keep the soil moist. Two weeks later, one 14-day old cucumber seedling was transplanted into each pot. Two weeks after transplant, the plants were harvested. Root and shoot measurements were recorded and root galls were counted.
# Statistical analyses: The data were analyzed as either a general linear model using JMP or a generalized linear model for the best distribution to fit the residual using Proc Glimmix (Sas Institute). The assumptions of the model were checked. If not met, then appropriate statistical techniques were used so that data could met the assumptions of the models. In Sas, mean comparisons were done with Sidak adjusted p-values to hold the experiment-wise error at 0.05. As indicated in the footnote to Table 5, an analysis from greenhouse trials was conducted with JMP using a Wilcoxon test with each pair nonparametric multiple comparisons (P≤0.05).
# Table 5 legend: a) treatments were added at a rate of 27 ml (Trial 1) and 28 ml (Trial 2) per 300 grams soil. Four replicate pots, each containing 300 grams soil, were used per treatment in each trial. Meloidogyne incognita was mixed into soil for a final inoculum of 5,000 eggs per pot. Two weeks after soil treatment, one 14-day old cucumber seedling was transplanted into each pot. […] Untransformed data are presented to show actual numbers on roots; e) compounds differ from each other in number of carbons of aliphatic ester moiety. The number of carbons is indicated in parentheses.
# [3] = 0.1%, previously hatched J2 in aqueous solution
# [4] = Meloidogyne incognita, 72 h, read-out: % Viable Day 3 rinsed
Compound,% Active Day 2 (Heterodera glycines eggs; 0.1%),% Active Day 5 (Heterodera glycines eggs; 0.1%),% Active Day 7 (Heterodera glycines eggs; 0.1%),inactive J2 that hatched from the eggs (Heterodera glycines eggs; 0.1%),Hatch Day 2 (Heterodera glycines eggs; 0.1%),Hatch Day 5 (Heterodera glycines eggs; 0.1%),Hatch Day 7 (Heterodera glycines eggs; 0.1%),"% Active Day 1 [1, 3]","% Active Day 2 [1, 3]","viability at 0.1 % [1, 4] [%]","mortality at 0.1 % ([1]; Meloidogyne incognita, 72 h) [%]",Root weight Trials 1 & 2 ([2]; 0.05%),Shoot fresh weight Trial 1 ([2]; 0.05%),Shoot height Trial 1 ([2]; 0.05%),Shoot fresh weight Trial 2 ([2]; 0.05%),Shoot height Trial 2 ([2]; 0.05%),Shoot fresh weight Trial 1 ([2]; 0.1%),Shoot height Trial 1 ([2]; 0.1%),Shoot fresh weight Trial 2 ([2]; 0.1%),Shoot height Trial 2 ([2]; 0.1%),further results
"C=COC(=O)c1ccccc1 [VB, Vinyl benzoate]",0 ^e %,0 ^f %,1 ^d %,all J2 that hatched from the eggs were inactive,3.5 ^d,3.5 ^d,3.4 ^d,0 ^f %,0 ^d %,1,100,3.1 ^ab g,3.2 ^a g,6.7 ^ab cm,4.3 ^ab g,8.3 ^a cm,3.0 ^a g,7.2 ^ab cm,3.1 ^b g,6.8 ^a cm,"hatch suppression compared to the Tween control (Heterodera glycines eggs; 0.1%, Day 2): 76%; pest or weed control at 0.1 % (Heterodera glycines eggs; 0.1%, Day 7): 80%; % Active Day 2 ([1]; 0.008% final concentration, Trial 2 only): 22.4 ^cd %; viability at 0.0008 % [1, 4]: 89.6%; viability at 0.008 % [1, 4]: 43.1%; % Viable Day 3 rinsed ([1]; in vivo): did not result in a significant reduction"
"COC(=O)c1cccc(C)c1 [M3MB, Methyl 3-methylbenzoate]",0 ^e %,0 ^f %,0 ^d %,all J2 that hatched from the eggs were inactive,5.2 ^cd,5.4 ^cd,5.1 ^cd,0 ^f %,0 ^d %,0,100,3.3 ^a g,3.3 ^a g,6.8 ^ab cm,4.3 ^ab g,7.9 ^a cm,3.2 ^a g,6.9 ^ab cm,3.6 ^ab g,7.2 ^a cm,"pest or weed control at 0.1 % (Heterodera glycines eggs; 0.1%, Day 7): 64 to 80%; % Active Day 2 ([1]; 0.015% final concentration): 66.8 ^ab %; viability at 0.015 % [1, 4]: 63.7%"
"COC(=O)c1ccccc1 [MB, Methyl benzoate]",0 ^e %,0 ^f %,0 ^d %,all J2 that hatched from the eggs were inactive,5.4 ^cd,5.6 ^cd,5.5 ^cd,0 ^f %,0 ^d %,0,100,3.0 ^ab g,3.2 ^a g,7.7 ^ab cm,3.9 ^ab g,8.0 ^a cm,3.0 ^a g,7.2 ^ab cm,4.0 ^ab g,8.3 ^a cm,"pest or weed control at 0.1 % (Heterodera glycines eggs): 64 to 80%; % Active Day 2 ([1]; 0.0095% final concentration): 22.4 ^d %; viability at 0.0095 % [1, 4]: 75.6%; Root weight Trials 1 & 2 ([2]; 0.1%): 2.9 ^ab g"
"CCOC(=O)c1ccccc1 [EB, Ethyl benzoate]",0 ^e %,0 ^f %,0 ^d %,all J2 that hatched from the eggs were inactive,6.7 ^bcd,6.8 ^bcd,6.6 ^bcd,0 ^f %,0 ^d %,0,100,3.2 ^ab g,2.8 ^a g,7.1 ^ab cm,4.7 ^a g,7.5 ^a cm,3.0 ^a g,6.4 ^b cm,4.0 ^ab g,8.1 ^a cm,"% Active Day 2 ([1]; 0.025% final concentration): 42.9 ^bc %; viability at 0.025 % [1, 4]: 80.2%; Root weight Trials 1 & 2 ([2]; 0.1%): 3.1 ^ab g"
